From patent publication US20110112135A1, “Imidazo [1,2-A] Pyridine Compounds” (priority 2007, published 2011)
Read-outs that look alike come from different tables or passages of the source.

How the values were obtained:
human LXRβ = target: T1, human LXRβ (Homo sapiens, UniProt P55055); test: Ligand-binding test procedure for human LXRβ (3H T0901317 tracer, flash plates); conditions: biotinylated hLXRβ from E. coli extract; tracer 3H T0901317
T1 construct: biotin (biotinylated); made in house; host or cells: E. coli (crude extract)
T1 sequence (P55055 1-460): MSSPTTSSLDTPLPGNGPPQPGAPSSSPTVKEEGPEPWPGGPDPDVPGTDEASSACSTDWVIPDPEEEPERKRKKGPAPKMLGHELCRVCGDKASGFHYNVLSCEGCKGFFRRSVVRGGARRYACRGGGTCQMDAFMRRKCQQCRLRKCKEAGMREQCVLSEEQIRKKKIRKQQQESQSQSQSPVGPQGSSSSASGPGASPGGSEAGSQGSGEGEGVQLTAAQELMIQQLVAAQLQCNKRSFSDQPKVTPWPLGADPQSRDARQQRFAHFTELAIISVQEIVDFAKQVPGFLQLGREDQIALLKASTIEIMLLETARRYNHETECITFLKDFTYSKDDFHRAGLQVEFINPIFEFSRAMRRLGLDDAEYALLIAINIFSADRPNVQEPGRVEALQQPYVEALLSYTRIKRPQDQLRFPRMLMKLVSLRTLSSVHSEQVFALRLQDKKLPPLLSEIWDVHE
Summary of the method: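 Biotinylated hLXRβ from E. coli extract was captured on streptavidin flash plates (Bmax ~4000 cpm) at 4 °C overnight. Test ligand dilutions were mixed with 5 nM [3H]T0901317 tracer solution and incubated on the plates overnight at 4 °C; bound radioactivity was counted after washing.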

human LXRα = target: T2, human LXRα (Homo sapiens, UniProt Q13133); test: Ligand-binding test procedure for human LXRα (3H T0901317 tracer, flash plates); conditions: biotinylated hLXRα from E. coli extract; tracer 3H T0901317
T2 construct: biotin (biotinylated); made in house; host or cells: E. coli (crude extract)
T2 sequence (Q13133 1-447): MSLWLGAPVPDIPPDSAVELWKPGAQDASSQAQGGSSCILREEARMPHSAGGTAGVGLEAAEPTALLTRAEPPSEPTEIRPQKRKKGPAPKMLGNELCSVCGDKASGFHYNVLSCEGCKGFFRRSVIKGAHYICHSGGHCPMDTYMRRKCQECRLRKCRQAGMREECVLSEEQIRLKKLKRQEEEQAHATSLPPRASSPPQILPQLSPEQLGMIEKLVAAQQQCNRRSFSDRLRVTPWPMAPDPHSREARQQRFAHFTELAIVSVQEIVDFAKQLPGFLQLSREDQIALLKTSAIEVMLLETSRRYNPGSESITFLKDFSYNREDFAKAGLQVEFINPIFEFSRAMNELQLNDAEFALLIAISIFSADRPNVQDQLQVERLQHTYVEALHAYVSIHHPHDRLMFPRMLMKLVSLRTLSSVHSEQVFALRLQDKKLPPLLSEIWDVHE
Summary of the method: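 Biotinylated hLXRα from E. coli extract (50 mM Tris) captured on streptavidin flash plates overnight at 4 °C. Compound dilution series mixed with 5 nM [3H]T0901317 (concentration before mixing), incubated overnight at 4 °C; wells aspirated, washed and remaining radioactivity counted.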

ABCA1 gene = test: Quantitative analysis of ABCA1 gene regulation in THP-1 cells (real-time PCR); type: cell-based, human; conditions: for EC50: read-out: EC50 ABCA1; for Emax: LXR agonist reference at 1.0 uM as positive control, read-out: Agonism ABCA1
Experimental: III. Quantitative Analysis of ABCA1 Gene Regulation in THP-1 Cells. The compounds of formula (I) effect on the regulation of the ABCA1 gene was evaluated using the following procedure. Materials and Methods Cell culture: The THP-1 monocytic cell line (ATCC #TIB-202) was obtained from American Type Culture Collection (Manassas, Va.) and cultured in RPMI 1640 medium (Gibco, Carlsbad, Calif.) containing 10% FBS, 2 mM L-glutamine, and 55 uM beta-Mercaptoethanol (BME). […] Louis, Mo.) for three days to induce differentiation into adherent macrophages. Differentiated THP-1 cells were treated with test compounds or ligands dissolved in DMSO (Sigma, D-8779) in culture medium lacking phorbal ester. […] Dose response effects were measured in duplicate, in the range of 0.001 to 30 micromolar concentrations and treated cells were incubated for an additional 18 hrs prior to RNA isolation. Unstimulated cells treated with vehicle were included as negative controls on each plate. […] L., J. Med. Chem. (2000), 45:1963-1966.). Results of antagonist analysis are expressed as % antagonism and IC50 (in μM). RNA isolation and quantitation: Total cellular RNA was isolated from treated cells cultured in 96-well plates using PrepStation 6100 (Applied Biosystems, Foster City, Calif.), according to the manufacturer's recommendations. RNA was resuspended in ribonuclease-free water and stored at -70° C. prior to analysis. RNA concentrations were quantitated with RiboGreen test procedure, #R-11490 (Molecular Probes, Eugene, Oreg.). Gene expression analysis: Gene-specific mRNA quantitation was performed by real-time PCR with the Perkin Elmer Corp. chemistry on an ABI Prism 7700 Sequence detection system (Applied Biosystems, Foster City, Calif.) according to the manufacturer's instructions. Samples (50-100 ng) of total RNA were assayed in duplicate or triplicate in 50 ul reactions using one-step RT-PCR and the standard curve method to estimate specific mRNA concentrations. Sequences of gene-specific primer and probe sets were designed with Primer Express Software (Applied Biosystems, Foster City, Calif.). […] Relative levels of ABCA1 mRNA are normalized using GAPDH mRNA or 18S rRNA probe/primer sets purchased commercially (Applied Biosystems, Foster City, Calif.). Statistics: Mean, standard deviation and statistical significance of duplicate evaluations of RNA samples were assessed using ANOVA, one-way analysis of variance using SAS analysis. Reagents: -GAPDH Probe and Primers-Taqman GAPDH Control Reagents 402869 or 4310884E 18S Ribosomal RNA-Taqman 18S Control Reagents 4308329 […] Qiagen Quantitect probe RT-PCR 204443.

[1] = Gene regulation by LXR (Human), differentiated THP-1 cells, 18 hrs, ABCA1 mRNA
[2] = Gene regulation by LXR (Human), differentiated THP-1 cells, 18 hrs

Structure (SMILES) | IC50 (human LXRβ) [nM] | IC50 (human LXRα) [nM] | EC50 (ABCA1 gene; [1]) [nM] | Emax (ABCA1 gene; [2]) [%] | EC50 (ABCA1 gene; Homo sapiens, THP-1, 18 h) [nM]
CCc1nc2c(C(F)(F)F)cccn2c1-c1cccc(Oc2cccc(S(=O)(=O)CC)c2)c1 [Example 18, 2-ethyl-3-(3-(3-(ethylsulfonyl)phenoxy)phenyl)-8-(trifluoromethyl)imidazo[1,2-a]pyridine] | 14 | 321 | 110 | 118 | –
CCCS(=O)(=O)c1cccc(Oc2cccc(-c3c(CC)nc4c(C(F)(F)F)cccn34)c2)c1 [Example 19, 2-ethyl-3-(3-(3-(propylsulfonyl)phenoxy)phenyl)-8-(trifluoromethyl)imidazo[1,2-a]pyridine] | 94 | 975 | 408 | 72 | –
CCc1nc2c(C(F)(F)F)cccn2c1-c1cccc(Oc2cccc(S(=O)(=O)C(C)C)c2)c1 [Example 20, 2-ethyl-3-(3-(3-(isopropylsulfonyl)phenoxy)phenyl)-8-(trifluoromethyl)imidazo[1,2-a]pyridine] | 14 | 281 | 70 | 101 | –
CCc1nc2c(C(F)(F)F)cccn2c1-c1cccc(Oc2cccc(S(=O)(=O)CCCO)c2)c1 [Example 21] | 44 | 520 | 771 | 111 | –
CCc1nc2c(C(F)(F)F)cccn2c1-c1cccc(Oc2cc(F)cc(S(C)(=O)=O)c2)c1 [Example 24, 2-ethyl-3-(3-(3-fluoro-5-(methylsulfonyl)phenoxy)phenyl)-8-(trifluoromethyl)imidazo[1,2-a]pyridine] | 51 | 636 | 147 | 76 | –
CCc1nc2c(C#N)cccn2c1-c1cccc(Oc2cccc(S(=O)(=O)N(C)Cc3ccc(OC)cc3)c2)c1 [Example 46, 3-[3-(8-cyano-2-ethylimidazo[1,2-a]pyridin-3-yl)phenoxy]-N-(4-methoxybenzyl)-N-methylbenzenesulfonamide] | 15.4 | 64.9 | 359 | 92 | –
CCc1nc2c(Cl)cccn2c1-c1cccc(Oc2cccc(S(=O)(=O)NC)c2)c1 [Example 48, 3-[3-(8-chloro-2-ethylimidazo[1,2-a]pyridin-3-yl)phenoxy]-N-methylbenzenesulfonamide] | 23 | 411 | 925 | 94 | –
CCc1nc2c(C#N)cccn2c1-c1cccc(Oc2cccc(S(=O)(=O)NC)c2)c1 [Example 51, 3-[3-(8-cyano-2-ethylimidazo[1,2-a]pyridin-3-yl)phenoxy]-N-methylbenzenesulfonamide] | 79.6 | 1920 | 1470 | 93 | –
CC(C)c1nc2c(C(F)(F)F)cccn2c1-c1cccc(Oc2cccc(S(=O)(=O)CCCO)c2)c1 [Example 61, 3-[(3-{3-[2-isopropyl-8-(trifluoromethyl)imidazo[1,2-a]pyridin-3-yl]phenoxy}phenyl)sulfonyl]propan-1-ol] | 19.8 | 456 | 1640 | 60 | –
CCc1nc2c(Cl)cccn2c1-c1cccc(Oc2cccc(S(C)(=O)=O)c2)c1 [Example 63, 8-chloro-2-ethyl-3-{3-[3-(methylsulfonyl)phenoxy]phenyl}imidazo[1,2-a]pyridine] | 17.3 | 642 | 304 | 96 | –
CCc1nc2c(Cl)cccn2c1-c1cccc(Oc2cccc(S(=O)(=O)CC)c2)c1 [Example 64, 8-chloro-2-ethyl-3-{3-[3-(ethylsulfonyl)phenoxy]phenyl}imidazo[1,2-a]pyridine] | 15.1 | 399 | 640 | 79 | –
CCc1nc2c(Cl)cccn2c1-c1cccc(Oc2cccc(S(=O)(=O)C(C)C)c2)c1 [Example 65, 8-chloro-2-ethyl-3-{3-[3-(isopropylsulfonyl)phenoxy]phenyl}imidazo[1,2-a]pyridine] | 16.9 | 315 | 1290 | 113 | –
CCS(=O)(=O)c1cccc(Oc2cccc(-c3c(C(C)C)nc4c(Cl)cccn34)c2)c1 [Example 67, 8-chloro-3-{3-[3-(ethylsulfonyl)phenoxy]phenyl}-2-isopropylimidazo[1,2-a]pyridine] | 9.5 | 405 | 1620 | 81 | –
CC(C)c1nc2c(Cl)cccn2c1-c1cccc(Oc2cccc(S(=O)(=O)C(C)C)c2)c1 [Example 68, 8-chloro-2-isopropyl-3-{3-[3-(isopropylsulfonyl)phenoxy]phenyl}imidazo[1,2-a]pyridine] | 7.1 | 406 | 1260 | 93 | –
CCc1nc2c(C#N)cccn2c1-c1cccc(Oc2cccc(S(=O)(=O)CC)c2)c1 [Example 70, 2-ethyl-3-{3-[3-(ethylsulfonyl)phenoxy]phenyl}imidazo[1,2-a]pyridine-8-carbonitrile] | 107 | 4670 | 1260 | 95 | –
CS(=O)(=O)c1cccc(Oc2ccc(-c3c(-c4ccsc4)nc4c(C(F)(F)F)cccn34)cc2)c1 [Example 127, 3-{4-[3-(methylsulfonyl)phenoxy]phenyl}-2-thiophen-3-yl-8-(trifluoromethyl)imidazo[1,2-a]pyridine] | 113 | – | 480 | 25 | –
CS(=O)(=O)c1cccc(Oc2cccc(-c3c(CN4CCCCC4)nc4c(C(F)(F)F)cccn34)c2)c1 [Example 131, 3-{3-[3-(methylsulfonyl)phenoxy]phenyl}-2-(piperidin-1-ylmethyl)-8-(trifluoromethyl)imidazo[1,2-a]pyridine] | – | – | – | 100 | 43
CS(=O)(=O)c1cccc(Oc2cccc(-c3c(CN4CCSC4)nc4c(C(F)(F)F)cccn34)c2)c1 [Example 133, 3-{3-[3-(methylsulfonyl)phenoxy]phenyl}-2-(1,3-thiazolidin-3-ylmethyl)-8-(trifluoromethyl)imidazo[1,2-a]pyridine] | – | – | – | 98 | 10
